Earlier results in US11931454B2, “Wet-packed soft hydrogel ocular inserts” (Alcon Inc., priority 2019, dated 2024).

Conditions: arylboronic acid group of the monomer

Compound	pKa
3-(meth)acrylamidophenylboronic acid	~8.2
4-(1,6-Dioxo-2,5-diaza-7-oxamyl)phenylboronic acid	~7.8
C=Cc1ccc(CN(C)C)c(B(O)O)c1 [2-Dimethylaminomethyl-5-vinylphenylboronic acid]	< 7.8

Now from value to compound:

pKa	Compound
~7.1	C=CCCS(=O)(=O)c1ccc(B(O)O)cc1 [4-(3-Butenylsulfonyl)phenylboronic acid]
~7.4	C=CCNS(=O)(=O)c1ccc(B(O)O)cc1 [4-(N-allylsulfamoyl)phenylboronic acid]
